Assay results from article PMC5892457, “Characterisation of novel biomass degradation enzymes from the genome of Cellulomonas fimi” (Enzyme and Microbial Technology, 2018).

Molecular target: T1, AfsA (Cellulomonas fimi, UniProt F4H166)
T1 construct: gene Celf_3321; full ORF as BioBrick, E. coli JM109 crude lysate, untagged
T1 sequence (F4H166 1-506): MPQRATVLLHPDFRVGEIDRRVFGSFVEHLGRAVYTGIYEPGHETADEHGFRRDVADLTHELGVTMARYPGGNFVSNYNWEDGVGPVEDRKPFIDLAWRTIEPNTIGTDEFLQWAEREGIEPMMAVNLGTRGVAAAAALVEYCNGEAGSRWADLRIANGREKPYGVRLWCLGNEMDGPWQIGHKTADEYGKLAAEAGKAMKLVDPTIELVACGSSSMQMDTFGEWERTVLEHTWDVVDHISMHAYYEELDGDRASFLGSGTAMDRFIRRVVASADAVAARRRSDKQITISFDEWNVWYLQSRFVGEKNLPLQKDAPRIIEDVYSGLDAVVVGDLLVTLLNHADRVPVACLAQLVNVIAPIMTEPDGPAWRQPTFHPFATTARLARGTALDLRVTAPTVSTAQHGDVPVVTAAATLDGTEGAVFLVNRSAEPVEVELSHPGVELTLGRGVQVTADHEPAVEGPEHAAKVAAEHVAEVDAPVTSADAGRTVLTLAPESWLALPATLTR
Assay: nitrophenol release at […] nm
Assay type: biochemical
Conditions: pH 5.0, 37 °C, E. coli lysate

SMILES: O=[N+]([O-])c1ccccc1O[C@@H]1OC[C@@H](O)[C@H](O)[C@H]1O [ONPX, 2-nitrophenyl β-D-xylopyranoside]
- nitrophenol release at 405 nm: AfsA at this temperature and pH being more active with ONPX than PNPA

SMILES: O=[N+]([O-])c1ccc(O[C@@H]2O[C@@H](CO)[C@H](O)[C@H]2O)cc1 [PNPA, 4-nitrophenyl α-L-arabinofuranoside]
- nitrophenol release at 405 nm: AfsA and AfsB have both arabinofuranoisdase and xylosidase activities
